In the test the target is T1, sodium ion channel of Trpm5 bitter receptor (Mus musculus, UniProt Q9JJH7).
T1 construct: Put the removed tongue in a 2 ml EP tube, add 1-1.5 ml of 0.25% trypsin solution; from tissue; host or cells: cells dissociated with trypsin from mouse tongue
T1 sequence (Q9JJH7 1-1158): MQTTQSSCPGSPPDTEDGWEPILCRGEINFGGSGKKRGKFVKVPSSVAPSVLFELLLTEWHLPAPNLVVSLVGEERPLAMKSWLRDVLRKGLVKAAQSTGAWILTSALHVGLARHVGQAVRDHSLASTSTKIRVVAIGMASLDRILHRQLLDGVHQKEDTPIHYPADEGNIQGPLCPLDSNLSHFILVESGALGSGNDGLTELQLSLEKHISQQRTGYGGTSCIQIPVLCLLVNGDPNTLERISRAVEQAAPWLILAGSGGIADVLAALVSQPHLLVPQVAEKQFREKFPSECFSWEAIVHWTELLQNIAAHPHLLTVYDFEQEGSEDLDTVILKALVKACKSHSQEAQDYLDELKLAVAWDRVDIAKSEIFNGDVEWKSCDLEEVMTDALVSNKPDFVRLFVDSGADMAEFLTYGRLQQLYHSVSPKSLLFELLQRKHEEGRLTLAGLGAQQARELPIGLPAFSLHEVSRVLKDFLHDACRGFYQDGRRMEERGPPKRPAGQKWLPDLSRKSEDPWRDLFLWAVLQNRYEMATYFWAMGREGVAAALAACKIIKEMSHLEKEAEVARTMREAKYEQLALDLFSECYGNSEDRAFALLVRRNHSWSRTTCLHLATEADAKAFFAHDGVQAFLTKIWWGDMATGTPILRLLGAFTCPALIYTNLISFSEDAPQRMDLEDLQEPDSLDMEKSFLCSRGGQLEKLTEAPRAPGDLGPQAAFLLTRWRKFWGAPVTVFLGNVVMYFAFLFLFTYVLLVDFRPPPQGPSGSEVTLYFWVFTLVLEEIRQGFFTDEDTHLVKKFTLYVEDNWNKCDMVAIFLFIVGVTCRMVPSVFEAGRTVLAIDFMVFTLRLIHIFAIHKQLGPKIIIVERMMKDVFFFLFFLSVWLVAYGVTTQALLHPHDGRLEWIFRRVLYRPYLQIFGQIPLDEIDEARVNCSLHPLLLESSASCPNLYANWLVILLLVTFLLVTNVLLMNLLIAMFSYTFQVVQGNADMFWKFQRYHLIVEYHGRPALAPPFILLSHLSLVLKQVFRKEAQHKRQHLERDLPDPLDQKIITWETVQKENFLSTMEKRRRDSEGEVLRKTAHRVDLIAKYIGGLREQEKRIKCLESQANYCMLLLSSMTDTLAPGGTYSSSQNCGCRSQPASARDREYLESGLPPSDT
Briefly: Immunofluorescence experiment of sodium ion channels in mouse tongue cells stimulated with bitter agent. The format is cell-based, mice. The note with it: for blocking effect on the sodium ion channel (result analysis in words): judged from change of sodium ion fluorescence after bitter drug.

Setting [1] is: Bitterant 60 s (2% metronidazole solution).
Where [2] appears, read: Bitterant 120 s (2% metronidazole solution).
[3] abbreviates: Bitterant 180 s (2% metronidazole solution).
[4] abbreviates: Initial (before addition of drug), sodium ion dye ENG-2 AM.

The structures appear in SMILES notation.

Two molecules from patent US20250108023A1, “Products for Masking Bitterness” (The Third People's Hospital of Henan Province, priority 2023, published 2025) can be followed below.

For `COc1cc(C(=O)O)ccc1O` [Vanillic acid, 3-methoxy-4-hydroxybenzoic acid], the “blocking effect on the sodium ion channel (result analysis in words)” value is “have poor effects and do not have bitterness masking effect”. In addition, under “Addition of drugs”, the “average value of fluorescence brightness” value came to 26.795 and the “average value of fluorescence brightness, base number removed” value (“average value … base number removed” below) is listed as −0.107. For the same molecule, under setting [1], the “average value of fluorescence brightness” value is reported as 26.689 and the “average value … base number removed” value was −0.213. Further, under setting [2], the “average value of fluorescence brightness” value stood at 26.699 and the “average value … base number removed” value is −0.203. Besides, under setting [3], the “average value of fluorescence brightness” value is 26.725 and the “average value … base number removed” value is given as −0.177. Also, under “Initial”, the “average value … base number removed” value amounted to 0. In addition, under setting [4], the “average value of fluorescence brightness” value is reported as 26.902.

Take `COc1ccc(CCN(C)CCCC(C#N)(c2ccc(OC)c(OC)c2)C(C)C)cc1OC` (stereo not shown) [Verapamil, 5-((3,4-dimethoxyphenylethyl)methylamino)-2-(3,4-dimethoxyphenyl)-2-isopropylvaleronitrile, reference compound]: the “blocking effect on the sodium ion channel (result analysis in words)” value is “have poor effects and do not have bitterness masking effect”. Also, for the setting “Addition of drugs”, the “average value of fluorescence brightness” value was found to be 27.77 and the “average value … base number removed” value is reported as −0.085. Under setting [1], the “average value of fluorescence brightness” value worked out at 28.089 and the “average value … base number removed” value was 0.234. Under setting [2], the “average value of fluorescence brightness” value was 27.651 and the “average value … base number removed” value was −0.204. Under setting [3], the “average value of fluorescence brightness” value worked out at 27.574 and the “average value … base number removed” value was −0.281. For the same molecule, the “average value … base number removed” value (Initial) is recorded as 0. Moreover, the “average value of fluorescence brightness” value under setting [4] is 27.855.
